15 compounds from PubChem BioAssay (NCI) can be followed below.

Several values for one entry are separate records, joined by “and”; a condition that tells them apart may be missing. Equal values may be shown once.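 Compound exposure: 48 hours, 5 concentrations, 96-well plates. Abbreviation: GI50, concentration required for 50% inhibition of growth. TGI marks complete inhibition of growth.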 Starred links: 1 amine or outer side, 2 acyl side, 3 side chain; linkers in the order of their positions; H or OH if unused. Positions of bridges follow the written chain, without caps; N, C: chain ends. Non-standard residues stand in square brackets, D forms with d. Residues, ends and D or L forms follow the SMILES beside them. Chains are numbered I, II in the order given. Actinocin(9to1) = Cc1c2oc3c(C)ccc(C(=O)[*:1])c3nc-2c(C(=O)[*:2])c(N)c1=O; NMeY = CN[CH](Cc1ccc(O)cc1)C(=O)O; Sar = CNCC(=O)O Bounds are passed on as bounds.

Some test systems named below: SNB-75 CNS; DU-145 prostate; SF-539 CNS; MOLT-4 leukemia; MDA-MB-231 breast; HT29 colon; NCI-H23 lung; SK-MEL-2 melanoma; A549 NSCLC; OVCAR-4 ovarian; OVCAR-8 ovarian; SK-OV-3 ovarian.
Common to all, as to test: DTP human tumour cell line panel, 48 h

With `O=C(Nc1ccccc1)c1cc(S(=O)(=O)NC2=NC(c3ccccc3)c3cc(Cl)ccc3N2)c(SSc2cc(Cl)c(C(=O)Nc3ccccc3)cc2S(=O)(=O)NC2=NC(c3ccccc3)c3cc(Cl)ccc3N2)cc1Cl` (configuration not stated), the TGI in the assay with SNB-75 CNS is more than 100 µM; in the assay on DU-145 prostate, more than 100 µM; in the assay with SF-539 CNS it was more than 100 µM; in the assay on MOLT-4 leukemia, more than 58.3 µM; in the assay on MDA-MB-231 breast it was more than 83.6 µM; in the assay with HT29 colon, more than 100 µM. The TGI with NCI-H23 lung, in the assay on SK-MEL-2 melanoma, in the assay with A549 NSCLC, with OVCAR-4 ovarian, in the assay on OVCAR-8 ovarian and with SK-OV-3 ovarian was more than 100 µM throughout.

In the case of `COc1ccc(C2SC(N)=Nc3c2c(C)nn3C(=O)c2ccncc2)cc1OC` (configuration not stated), the TGI with SNB-75 CNS, with DU-145 prostate, with SF-539 CNS, in the assay with MOLT-4 leukemia, with MDA-MB-231 breast and with HT29 colon was more than 10 µM throughout. The concentration for total growth inhibition (TGI) in the assay on NCI-H23 lung, with SK-MEL-2 melanoma, in the assay on A549 NSCLC, in the assay on OVCAR-4 ovarian, in the assay on OVCAR-8 ovarian and with SK-OV-3 ovarian was more than 10 µM throughout.

`COC(=O)C1=C(OC(=O)/C(=C/c2ccc(Cl)cc2)c2ccc(Cl)cc2)C(C(=O)OC)[C@@]2(O)[C@@H](C(=O)OC)[C@H](C)C[C@@H]1[C@@H]2C(=O)OC` (some centres not stated): the TGI was more than 100 µM in the assay on SNB-75 CNS; more than 100 µM in the assay with DU-145 prostate; more than 100 µM in the assay on SF-539 CNS; 98.8 µM with MOLT-4 leukemia; more than 100 µM with MDA-MB-231 breast; more than 100 µM in the assay with HT29 colon. Further, the TGI in the assay with NCI-H23 lung is more than 100 µM; with SK-MEL-2 melanoma, more than 100 µM; in the assay with A549 NSCLC, more than 87.7 µM; in the assay with OVCAR-4 ovarian it was more than 100 µM; in the assay with OVCAR-8 ovarian, more than 100 µM; in the assay with SK-OV-3 ovarian, more than 100 µM.

Consider `COC[C@@H](N=CC(C)(C)C)C(C)C`, for which the concentration for total growth inhibition (TGI) with SNB-75 CNS, with DU-145 prostate, in the assay on SF-539 CNS, in the assay on MOLT-4 leukemia, with MDA-MB-231 breast and with HT29 colon was more than 100 µM each time. Further, the TGI in the assay with NCI-H23 lung, in the assay on SK-MEL-2 melanoma, in the assay with A549 NSCLC, in the assay on OVCAR-4 ovarian, in the assay on OVCAR-8 ovarian and in the assay with SK-OV-3 ovarian was more than 100 µM throughout.

For `BrC1=C(Br)C2(SCCS2)[C@H]2C[C@@H]1c1ccccc12`, the total growth inhibition concentration (TGI) in the assay on SNB-75 CNS was more than 85.9 µM; with DU-145 prostate it was more than 100 µM; in the assay with SF-539 CNS, more than 100 µM; in the assay with MOLT-4 leukemia it was more than 100 µM; with MDA-MB-231 breast it was more than 100 µM; with HT29 colon, more than 100 µM. The TGI in the assay with NCI-H23 lung, in the assay with SK-MEL-2 melanoma, in the assay on A549 NSCLC, with OVCAR-4 ovarian, in the assay with OVCAR-8 ovarian and in the assay with SK-OV-3 ovarian was more than 100 µM each time.

Take `O=C1c2ccccc2C(=O)c2c(NCC(O)CO)ccc(NCC(O)CO)c21` (configuration not stated): the TGI in the assay on SNB-75 CNS, with DU-145 prostate, in the assay on SF-539 CNS, with MOLT-4 leukemia, in the assay with MDA-MB-231 breast and with HT29 colon was more than 100 µM throughout. For the same compound, the TGI is more than 100 µM with NCI-H23 lung; 94.8 µM in the assay on SK-MEL-2 melanoma; more than 100 µM in the assay with A549 NSCLC; more than 100 µM in the assay with OVCAR-4 ovarian; more than 100 µM in the assay on OVCAR-8 ovarian; more than 100 µM in the assay with SK-OV-3 ovarian.

As to `C/C=C/C(CC(O)(C(F)(F)F)C(F)(F)F)=N/NC(N)=S`, the concentration for total growth inhibition (TGI) with SNB-75 CNS, in the assay with DU-145 prostate, in the assay with SF-539 CNS, in the assay on MOLT-4 leukemia, with MDA-MB-231 breast and with HT29 colon was more than 10 µM each time. The total growth inhibition concentration (TGI) in the assay on NCI-H23 lung, in the assay with SK-MEL-2 melanoma, in the assay with A549 NSCLC, with OVCAR-4 ovarian, in the assay on OVCAR-8 ovarian and in the assay on SK-OV-3 ovarian was more than 10 µM throughout.

Turning to `CC(C)NC(=O)OCc1c(COC(=O)NC(C)C)c(-c2cc[n+](COC(=O)C3CC3)cc2)n2c1CCC2`, the concentration for total growth inhibition (TGI) with SNB-75 CNS, in the assay with DU-145 prostate, in the assay on SF-539 CNS, in the assay on MOLT-4 leukemia, in the assay with MDA-MB-231 breast and in the assay with HT29 colon was more than 100 µM throughout. The TGI with NCI-H23 lung, in the assay on SK-MEL-2 melanoma, in the assay with A549 NSCLC, with OVCAR-4 ovarian, with OVCAR-8 ovarian and in the assay with SK-OV-3 ovarian was more than 100 µM throughout.

For `Cc1c2oc3c(C)ccc(C(=O)NC4C(=O)NC(C(C)C)C(=O)N5CCCC5C(=O)N(C)CC(=O)N(C)C(Cc5ccc(O)cc5)C(=O)OC4C)c3nc-2c(C(=O)NC2C(=O)NC(C(C)C)C(=O)N3CCCC3C(=O)N(C)CC(=O)N(C)C(Cc3ccc(O)cc3)C(=O)OC2C)c(N)c1=O` (configuration not stated) (I: TVP[Sar][NMeY] / II: TVP[Sar][NMeY]; ester I:1-I:C, II:1-II:C; linker I:N-II:N via Actinocin(9to1); configuration not given here), the concentration for 50% growth inhibition (GI50) with SNB-75 CNS was 0.0174 µM and 0.00316 µM; with DU-145 prostate, 0.0687 µM and 0.0302 µM; with MOLT-4 leukemia, 0.00426 µM and 0.00176 µM; with MDA-MB-231 breast, 0.136 µM and 0.0318 µM; in the assay with HT29 colon it was 0.00859 µM and 0.00267 µM; in the assay with NCI-H23 lung it was 0.0493 µM and 0.0128 µM. Also, the GI50 in the assay with A549 NSCLC was 0.0499 µM and 0.0119 µM; in the assay with SK-OV-3 ovarian it was 0.16 µM and 0.075 µM. Further, the concentration for total growth inhibition (TGI) in the assay on SNB-75 CNS was 0.278 µM and 0.228 µM; in the assay with DU-145 prostate, more than 1 µM; in the assay on SF-539 CNS, 0.224 µM and 0.152 µM; in the assay on MDA-MB-231 breast it was more than 1 µM; in the assay with HT29 colon, 0.377 µM and > 0.412 µM; with NCI-H23 lung, 0.287 µM and 0.0772 µM. Further, the TGI is 0.111 µM and 0.0245 µM in the assay with SK-MEL-2 melanoma; more than 1 µM with A549 NSCLC; more than 0.301 µM in the assay on OVCAR-4 ovarian; 0.612 µM in the assay on OVCAR-8 ovarian; more than 1 µM with SK-OV-3 ovarian.

Take `Nc1ccc2c(c1)C(=O)N1CCC[C@H]1C(=O)N2`: the TGI in the assay on SNB-75 CNS, in the assay on DU-145 prostate, in the assay with SF-539 CNS, in the assay with MOLT-4 leukemia, with MDA-MB-231 breast and in the assay with HT29 colon was more than 100 µM in each case. For the same compound, the TGI in the assay on NCI-H23 lung, in the assay on SK-MEL-2 melanoma, in the assay on A549 NSCLC, in the assay with OVCAR-4 ovarian, with OVCAR-8 ovarian and with SK-OV-3 ovarian was more than 100 µM in each case.

On to `O=c1[nH]nnc2c1sc1ncccc12`, for which the TGI with SNB-75 CNS, in the assay on DU-145 prostate, with SF-539 CNS, in the assay on MOLT-4 leukemia, in the assay on MDA-MB-231 breast and in the assay with HT29 colon was more than 100 µM each time. The TGI in the assay on NCI-H23 lung, with SK-MEL-2 melanoma, with A549 NSCLC, in the assay with OVCAR-4 ovarian, with OVCAR-8 ovarian and with SK-OV-3 ovarian was more than 100 µM each time.

In the case of `C=CCn1c(N)c(C#N)c(C#N)c1-c1ccccc1`, the TGI in the assay with SNB-75 CNS, with DU-145 prostate, in the assay on SF-539 CNS, with MOLT-4 leukemia, in the assay on MDA-MB-231 breast and in the assay on HT29 colon was more than 100 µM throughout. Also, the TGI in the assay on NCI-H23 lung, with SK-MEL-2 melanoma, in the assay on A549 NSCLC, in the assay with OVCAR-4 ovarian, in the assay on OVCAR-8 ovarian and with SK-OV-3 ovarian was more than 100 µM throughout.

As for `COC(=O)/C=C(\C(=O)OC)C1C(=O)Oc2c(C)c(=O)c3ccccc3n21` (configuration not stated), the total growth inhibition concentration (TGI) in the assay with SNB-75 CNS, in the assay with DU-145 prostate, in the assay with SF-539 CNS, with MOLT-4 leukemia, in the assay with MDA-MB-231 breast and with HT29 colon was more than 100 µM throughout. Further, the TGI in the assay on NCI-H23 lung, with SK-MEL-2 melanoma, with A549 NSCLC, in the assay with OVCAR-4 ovarian, with OVCAR-8 ovarian and in the assay on SK-OV-3 ovarian was more than 100 µM each time.

For `C=C(Cl)C(=CCl)CCC(Br)C(C)(C)Cl` (mixture of isomers), the TGI with SNB-75 CNS, with DU-145 prostate, in the assay with SF-539 CNS, in the assay on MOLT-4 leukemia, in the assay on MDA-MB-231 breast and with HT29 colon was more than 10 µM each time. Moreover, the TGI with NCI-H23 lung, with SK-MEL-2 melanoma, in the assay on A549 NSCLC, with OVCAR-4 ovarian, with OVCAR-8 ovarian and in the assay on SK-OV-3 ovarian was more than 10 µM in each case.

Regarding `CC1(C)CC(=O)C(C=NC(=S)c2ccccc2)=C(O)C1`, the TGI with SNB-75 CNS, in the assay with DU-145 prostate, with SF-539 CNS, with MOLT-4 leukemia, with MDA-MB-231 breast and in the assay on HT29 colon was more than 100 µM in each case. Besides, the TGI with NCI-H23 lung, in the assay with SK-MEL-2 melanoma, in the assay on A549 NSCLC, in the assay on OVCAR-4 ovarian, in the assay with OVCAR-8 ovarian and with SK-OV-3 ovarian was more than 100 µM each time.
